Measurements taken from US6861236B2, “Export and modification of (poly)peptides in the lantibiotic way” (Applied Nanosystems B.V., priority 2002, dated 2005).

System: nisin sensitive strain
Assay: agar well (halo) assay for antibacterial activity
Type: cell-based
Settings: Example 5: trypsin-treated ziptipped material/crude supernatant of E. coli SF120 with NisABTC
Method: The above ZIPTIPPED™ material and the crude supernatant is treated after outer membrane disruption with trypsin. This material is applied to the agar well assay to determine antibacterial activity.
Materials and methods. […] NZ9000+pNG-NisABTC were grown and induced. The supernatant is analyzed as in Example 1. Trypsin treated supernatant was subjected to the agar well assay by pouring the trypsinated supernatant in an agar well and overlaying with a nisin sensitive strain.
The mutation was checked by PCR and sequencing. The above-generated ΔNisP strain was grown overnight in M17 medium (Terzaghi and Sandine, 1975, Appl. Microbiol. 29: 807-813), diluted 100 fold and grown to OD600 equal to 0.4. […] After 1, 2 and 3 hours, more 0.2 mM pmsf, 0.2 mM TPCK are added and followed by overnight incubation. […] Elution and experiments a) and b).

nisin
antimicrobial activity in the agar well assay: antimicrobial activity
